Experimental findings from publication PMC11218446, “Antibacterial efficacy and membrane mechanism of action of the Serratia-derived non-ionic lipopeptide, serrawettin W2-FL10” (Microbiology Spectrum, 2024) are described below.

Type in all cases: cell-based, Staphylococcus aureus
The subject of assay [1] is MRSA Xen 30. The following applies: for ICF / IC50 ± SE / MIC ± SE: resazurin. The text has this: Based on the broth microdilution assay results for W2-FL10 and melittin, the S. aureus ATCC 25923 (reference), S. aureus RN4220 (laboratory; MSSA), or methicillin-resistant S. aureus Xen 30 (clinical; MRSA) strains were selected for further antibacterial studies. Resazurin (also referred to as Alamar Blue) is a blue, non-fluorescent dye that can be reduced to resorufin (a pink, fluorescent compound) by metabolically active cells. The dye can thus be used as a quantitative indicator of cell viability ([52]). Therefore, a broth microdilution assay coupled with resazurin [prepared to a stock solution of 0.3 mg/mL in PBS; ([53])] was used to determine the influence of cations (Mg^2+ and Ca^2+), commercial LTA of S. aureus and DOPG on the potency of W2-FL10 against S. aureus ATCC 25923, S. aureus RN4220 and MRSA Xen 30 as described by Wu et al. ([54]).
For investigating the influence of cations on the antibacterial potency of W2-FL10, a clear 96-well plate was prepared with W2-FL10 and air dried as described in the “Antibacterial activity: broth microdilution assay” section. The S. aureus strains were inoculated into MHB or CA-MHB, grown to mid-log phase (OD600 of 0.5–0.6), and diluted to OD600 of 0.4. A 1:20 dilution of the test strain (final concentration of ∼10^5 CFU/mL) was prepared and 100 µL was dispensed into each well (final concentration of W2-FL10 at 1.56 to 25 µg/mL). Sterile broth (i.e., MHB or CA-MHB) and the OD-adjusted inoculum were included in the assay as a positive control, while sterile broth (i.e., MHB or CA-MHB) was included as a sterility control. The plate was incubated for 24 h at 37°C.
Similarly, the possible interaction and binding of LTA of S. aureus and DOPG (both at 1 mg/mL in 10% EtOH) with the lipopeptide W2-FL10 was investigated ([54]). Briefly, a clear 96-well plate was prepared with W2-FL10 and air dried as described in the “Antibacterial activity: broth microdilution assay” section. Thereafter, 10 µL of LTA from S. aureus or DOPG was dispensed into the respective wells. The S. aureus strains were grown to mid-log phase in MHB (OD600 of 0.5–0.6) and diluted to OD600 of 0.4. A 1:20 dilution of test strain (final concentration of ∼10^5 CFU/mL) was prepared, 100 µL was dispensed into each well (final concentration of W2-FL10 at 3.13 to 100 µg/mL), and the plate was incubated for 24 h at 37°C. Sterile broth, the OD-adjusted inoculum, and the respective LTA or DOPG were included in the assay as a positive control, while sterile broth and LTA or DOPG were included as a sterility control.
After incubation of both plates, 10 µL of resazurin (0.3 mg/mL) was added to each well and the plate was incubated at 37°C for 1 h. Fluorometric readings of the experimental plates were conducted using a Tecan Spark 10M Multimode Microplate Reader at 560 nm excitation wavelength and 590 nm emission wavelength. For all resazurin assays, the percentage inhibition was calculated as described by van Rensburg et al. ([53]). All experiments were performed in triplicate, with independent biological duplicates. […] Dose-response curves (nonlinear regression using equation 1) were processed as described by Rautenbach et al. ([17]) (also see description above), and IC50 values were deduced from the best-fit sigmoidal curves (R^2 ≥ 0.98). Statistical analyses were done by comparing W2-FL10 IC50, in the presence of Ca^2+ and Mg^2+, in the presence of DOPG, and in the presence of LTA toward the control condition each of the three S. aureus strains using one-way analysis of variance (ANOVA) with Bonferroni’s post hoc test.

Assay [2] has as its system MRSA Xen 30. Kind of assay: Scanning electron microscopy. The conditions noted are these: 25 µg/mL, 1 h. As for the experimental part:
(§1) SEM was performed to visualize the bacterial membrane morphology following treatment ([24]). Briefly, the S. aureus strains were prepared as described in the “Antibacterial activity: broth microdilution assay” section and harvested by centrifugation at 3,000 rpm for 10 min. The cells were re-suspended in PBS at a dilution of ~10^7 CFU/mL (OD600 = 0.4). The diluted cultures were then treated with 25 µg/mL of W2-FL10, for 1 h, while cells without W2-FL10 were used as a control. Specimens were resuspended in 2.5% (vol/vol) glutaraldehyde solution in 0.1 M PBS (pH 7.2) and fixed for approximately 24 h. After the primary fixation, bacterial cells were pelleted and rinsed with PBS. Dehydration of samples through an ethanol series (30%, 50%, 70%, 90%, 95%, and 100% for 10 min each) was performed, followed by filtration onto a filter paper (pore size of 0.2 µm), which was glued onto an aluminum grid (11 mm diameter). The grid was dried with hexamethyldisilazane and coated with gold-palladium alloy. The grids were then inspected with a Tescan MIRA3 RISE Scanning Electron Microscope at the Electron Microscope Unit of the University of Cape Town.

A further assay relates to S. aureus ATCC 25923. Kind of assay: Scanning electron microscopy. The following applies: 25 µg/mL, 1 h. As for the experimental part:
as §1

In a further assay the test system is S. aureus RN4220. Kind of assay: Scanning electron microscopy. The following applies: 25 µg/mL, 1 h; primarily one large lesion per cell. As to the method:
as §1

Values after ≈ are worked out from the molar mass of the structure shown. Like-named read-outs stand apart in the source and are kept apart here.

As for `CCCCCCCC1CC(=O)N[C@H](CC(C)C)C(=O)N[C@@H](CO)C(=O)N[C@@H]([C@@H](C)O)C(=O)N[C@H](Cc2ccccc2)C(=O)N[C@@H](CC(C)C)C(=O)O1` (stereo partly shown) [W2-FL10, serrawettin W2-FL10], the “increase in the IC50 in the presence of LTA” value in the assay with MRSA Xen 30 [1] (LTA 100 µg/mL vs control, P < 0.001) was “twofold”. Also, the ICF in the assay on MRSA Xen 30 [1] (Ca2+ and Mg2+ (CA-MHB)) is recorded as 1.7; in the assay with MRSA Xen 30 [1] (Control (MHB)), 3.4; with MRSA Xen 30 [1] (DOPG 100 µg/mL), 2.4; in the assay on MRSA Xen 30 [1] (LTA 100 µg/mL), 4.1. Besides, the “IC50 ± SE” value is 12.2±0.2 (5) 9.5±1.5 (4) 40.6±2.0 (4) 24.6±0.1 (4) µg/mL in the assay on MRSA Xen 30 [1] (Ca2+ and Mg2+ (CA-MHB), n = 4); 12.2 µg/mL (≈ 16.7 µM) with MRSA Xen 30 [1] (Control (MHB), n = 5); 40.6 µg/mL (≈ 55.5 µM) with MRSA Xen 30 [1] (DOPG 100 µg/mL, n = 4); 24.6 µg/mL (≈ 33.6 µM) in the assay with MRSA Xen 30 [1] (LTA 100 µg/mL, n = 4). Also, the “MIC ± SE” value was 12.5 ± 0.0 µg/mL (≈ 17.1 µM) against MRSA Xen 30 [1] (Ca2+ and Mg2+ (CA-MHB), n = 4); 22.5 ± 2.5 µg/mL (≈ 30.7 µM) in the assay on MRSA Xen 30 [1] (Control (MHB), 24 h 37°C, n = 5); 62.5 ± 12.5 µg/mL (≈ 85.4 µM) against MRSA Xen 30 [1] (DOPG 100 µg/mL, n = 4); 50.0 ± 17.7 µg/mL (≈ 68.3 µM) in the assay with MRSA Xen 30 [1] (LTA of S. aureus 100 µg/mL, n = 3). The “morphology by SEM, in words” value with MRSA Xen 30 [2] is recorded as “Minor morphological changes”; with S. aureus ATCC 25923, “Minor morphological changes”; with S. aureus RN4220, “more significant cell damage”.
